Measurements taken from PubChem BioAssay (NCI).
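How tested: cells in 96-well plates exposed to compound for 48 hours at five concentrations. At the GI50, growth is halved. TGI marks complete inhibition of growth.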

Legend:
Assay in all cases: DTP human tumour cell line panel, 48 h
SNB-75 CNS = tested on: SNB-75 CNS
NCI-H226 lung = tested on: NCI-H226 lung
COLO 205 colon = tested on: COLO 205 colon
UACC-257 melanoma = tested on: UACC-257 melanoma
NCI-H23 lung = tested on: NCI-H23 lung
SN12C renal = tested on: SN12C renal
HCC-2998 colon = tested on: HCC-2998 colon
NCI-H522 lung = tested on: NCI-H522 lung
CCRF-CEM leukemia = tested on: CCRF-CEM leukemia
HL-60(TB) leukemia = tested on: HL-60(TB) leukemia
PC-3 prostate = tested on: PC-3 prostate
UO-31 renal = tested on: UO-31 renal
SK-OV-3 ovarian = tested on: SK-OV-3 ovarian
MDA-MB-435 = tested on: MDA-MB-435
A549 NSCLC = tested on: A549 NSCLC
IGROV1 ovarian = tested on: IGROV1 ovarian
UACC-62 melanoma = tested on: UACC-62 melanoma
T-47D breast = tested on: T-47D breast
EKVX NSCLC = tested on: EKVX NSCLC
HOP-62 NSCLC = tested on: HOP-62 NSCLC
OVCAR-3 ovarian = tested on: OVCAR-3 ovarian
MCF7 breast = tested on: MCF7 breast
HT29 colon = tested on: HT29 colon
TK-10 renal = tested on: TK-10 renal
DU-145 prostate = tested on: DU-145 prostate
MDA-MB-468 breast = tested on: MDA-MB-468 breast
RPMI-8226 leukemia = tested on: RPMI-8226 leukemia
SF-295 CNS = tested on: SF-295 CNS
A498 renal = tested on: A498 renal
OVCAR-4 ovarian = tested on: OVCAR-4 ovarian
K-562 leukemia = tested on: K-562 leukemia
LOX IMVI melanoma = tested on: LOX IMVI melanoma
U251 CNS = tested on: U251 CNS
KM12 colon = tested on: KM12 colon
SF-539 CNS = tested on: SF-539 CNS
MOLT-4 leukemia = tested on: MOLT-4 leukemia
MDA-MB-231 breast = tested on: MDA-MB-231 breast
HS 578T breast = tested on: HS 578T breast
SK-MEL-28 melanoma = tested on: SK-MEL-28 melanoma
NCI/ADR-RES ovarian = tested on: NCI/ADR-RES ovarian
SK-MEL-5 melanoma = tested on: SK-MEL-5 melanoma
SR leukemia = tested on: SR leukemia
OVCAR-8 ovarian = tested on: OVCAR-8 ovarian
SW-620 colon = tested on: SW-620 colon
MALME-3M melanoma = tested on: MALME-3M melanoma
RXF 393 renal = tested on: RXF 393 renal
786-0 renal = tested on: 786-0 renal
SF-268 CNS = tested on: SF-268 CNS
SK-MEL-2 melanoma = tested on: SK-MEL-2 melanoma
ACHN renal = tested on: ACHN renal
BT-549 breast = tested on: BT-549 breast
M14 melanoma = tested on: M14 melanoma
HCT-116 colon = tested on: HCT-116 colon
HCT-15 colon = tested on: HCT-15 colon
CAKI-1 renal = tested on: CAKI-1 renal
HOP-92 NSCLC = tested on: HOP-92 NSCLC
OVCAR-5 ovarian = tested on: OVCAR-5 ovarian
SNB-19 CNS = tested on: SNB-19 CNS
NCI-H460 lung = tested on: NCI-H460 lung

In the case of `COc1cc2c(c(OC)c1OC)C(=O)CC(c1cccc(NC(=O)c3cc([N+](=O)[O-])ccc3Cl)c1)O2` (stereo not drawn), the GI50 (SNB-75 CNS) was 2.53 µM, the TGI (SNB-75 CNS) was 26.3 µM and the GI50 (NCI-H226 lung) was 3.37 µM. The TGI (NCI-H226 lung) was 17.5 µM, the GI50 (COLO 205 colon) was 5.49 µM and the TGI (COLO 205 colon) was 21 µM. For the same compound, the GI50 (UACC-257 melanoma) was 6.27 µM, the TGI (UACC-257 melanoma) was > 100 µM and the GI50 (NCI-H23 lung) was 5.34 µM. The TGI (NCI-H23 lung) was 26.9 µM, the GI50 (SN12C renal) was 2.74 µM and the TGI (SN12C renal) was 14.6 µM. For the same compound, the GI50 (HCC-2998 colon) was 13.7 µM, the TGI (HCC-2998 colon) was > 100 µM and the GI50 (NCI-H522 lung) was 3.04 µM. The TGI (NCI-H522 lung) was 15.5 µM, the GI50 (CCRF-CEM leukemia) was 2.44 µM and the TGI (CCRF-CEM leukemia) was 7.84 µM. It also gave a GI50 (HL-60(TB) leukemia) of 4.91 µM, a TGI (HL-60(TB) leukemia) of 57.7 µM and a GI50 (PC-3 prostate) of 7.27 µM. The TGI (PC-3 prostate) was > 100 µM, the GI50 (UO-31 renal) was 4.78 µM and the TGI (UO-31 renal) was > 100 µM. The GI50 (SK-OV-3 ovarian) was 38.8 µM, the TGI (SK-OV-3 ovarian) was > 100 µM and the GI50 (MDA-MB-435) was 3.51 µM. The TGI (MDA-MB-435) was 24.8 µM, the GI50 (A549 NSCLC) was 6.66 µM and the TGI (A549 NSCLC) was > 100 µM. For the same compound, the GI50 (IGROV1 ovarian) was 11.3 µM, the TGI (IGROV1 ovarian) was > 100 µM and the GI50 (UACC-62 melanoma) was 4.17 µM. For the same compound, the TGI (UACC-62 melanoma) was 45.3 µM, the GI50 (T-47D breast) was 3.74 µM and the TGI (T-47D breast) was 58.7 µM. The GI50 (EKVX NSCLC) was 21.9 µM, the TGI (EKVX NSCLC) was > 100 µM and the GI50 (HOP-62 NSCLC) was 60.9 µM. For the same compound, the TGI (HOP-62 NSCLC) was > 100 µM, the GI50 (OVCAR-3 ovarian) was 5.12 µM and the TGI (OVCAR-3 ovarian) was > 100 µM. The GI50 (MCF7 breast) was 2.56 µM, the TGI (MCF7 breast) was > 100 µM and the GI50 (HT29 colon) was 7.21 µM. For the same compound, the TGI (HT29 colon) was > 100 µM, the GI50 (TK-10 renal) was 33.6 µM and the TGI (TK-10 renal) was > 100 µM. For the same compound, the GI50 (DU-145 prostate) was 5.48 µM, the TGI (DU-145 prostate) was > 100 µM and the GI50 (MDA-MB-468 breast) was 2.3 µM. The TGI (MDA-MB-468 breast) was 5.92 µM, the GI50 (RPMI-8226 leukemia) was 3.14 µM and the TGI (RPMI-8226 leukemia) was 38.1 µM. The GI50 (SF-295 CNS) was 7.61 µM, the TGI (SF-295 CNS) was > 100 µM and the GI50 (A498 renal) was 45 µM. For the same compound, the TGI (A498 renal) was > 100 µM, the GI50 (OVCAR-4 ovarian) was 26.6 µM and the TGI (OVCAR-4 ovarian) was > 100 µM. The GI50 (K-562 leukemia) was 4.42 µM, the TGI (K-562 leukemia) was > 100 µM and the GI50 (LOX IMVI melanoma) was 1.59 µM. The TGI (LOX IMVI melanoma) was 3.56 µM, the GI50 (U251 CNS) was 4.32 µM and the TGI (U251 CNS) was 25 µM. The GI50 (KM12 colon) was 3.86 µM, the TGI (KM12 colon) was 33.8 µM and the GI50 (SF-539 CNS) was 3.54 µM. The TGI (SF-539 CNS) was 18.9 µM, the GI50 (MOLT-4 leukemia) was 2.56 µM and the TGI (MOLT-4 leukemia) was > 100 µM. The GI50 (MDA-MB-231 breast) was 3.96 µM, the TGI (MDA-MB-231 breast) was 19.1 µM and the GI50 (HS 578T breast) was 3.98 µM. The TGI (HS 578T breast) was > 100 µM, the GI50 (SK-MEL-28 melanoma) was 15.5 µM and the TGI (SK-MEL-28 melanoma) was > 100 µM. For the same compound, the GI50 (NCI/ADR-RES ovarian) was 4.99 µM, the TGI (NCI/ADR-RES ovarian) was 29.5 µM and the GI50 (SK-MEL-5 melanoma) was 8.99 µM. For the same compound, the TGI (SK-MEL-5 melanoma) was 73.3 µM, the GI50 (SR leukemia) was 2.39 µM and the TGI (SR leukemia) was > 100 µM. It also gave a GI50 (OVCAR-8 ovarian) of 3.47 µM, a TGI (OVCAR-8 ovarian) of 20.5 µM and a GI50 (SW-620 colon) of 2.14 µM. The TGI (SW-620 colon) was 5.61 µM, the GI50 (MALME-3M melanoma) was 18.2 µM and the TGI (MALME-3M melanoma) was > 100 µM. For the same compound, the GI50 (RXF 393 renal) was 4.02 µM, the TGI (RXF 393 renal) was 34.4 µM and the GI50 (786-0 renal) was 17.5 µM. For the same compound, the TGI (786-0 renal) was > 100 µM, the GI50 (SF-268 CNS) was 6.92 µM and the TGI (SF-268 CNS) was > 100 µM. It also gave a GI50 (SK-MEL-2 melanoma) of 10.8 µM, a TGI (SK-MEL-2 melanoma) of 40.1 µM and a GI50 (ACHN renal) of 5 µM. The TGI (ACHN renal) was 27.8 µM, the GI50 (BT-549 breast) was 2.27 µM and the TGI (BT-549 breast) was 16.8 µM. It also gave a GI50 (M14 melanoma) of 3.17 µM, a TGI (M14 melanoma) of 15.9 µM and a GI50 (HCT-116 colon) of 1.69 µM. It also gave a TGI (HCT-116 colon) of 3.64 µM, a GI50 (HCT-15 colon) of 2.04 µM and a TGI (HCT-15 colon) of 6.08 µM. For the same compound, the GI50 (CAKI-1 renal) was 3.22 µM, the TGI (CAKI-1 renal) was > 100 µM and the GI50 (HOP-92 NSCLC) was 2.73 µM. The TGI (HOP-92 NSCLC) was 17.8 µM, the GI50 (OVCAR-5 ovarian) was 22.4 µM and the TGI (OVCAR-5 ovarian) was > 100 µM. The GI50 (SNB-19 CNS) was 18.6 µM, the TGI (SNB-19 CNS) was > 100 µM and the GI50 (NCI-H460 lung) was 8.14 µM. It also gave a TGI (NCI-H460 lung) of 82.9 µM.
